The source made the active and inactive calls. The rule behind the calls is not given here.
Key:
[1] = Intrinsic clearance in mouse liver microsomes in presence of NADPH by UPLC-MS analysis; type: ADME, Microsome
[2] = Half life in human liver microsomes in presence of NADPH by UPLC-MS analysis; type: ADME, Microsome
[3] = Intrinsic clearance in rat hepatocytes assessed per million cells by UPLC-MS analysis; type: ADME, cell-based, Hepatocyte; details: read-out: CLH
[4] = Ratio of drug level in blood to plasma in Sprague-Dawley rat at 3 mg/kg, iv administered as infusion for 10 mins measured after 1 hr by LC-MS analysis; type: ADME, organism-based; details: whole blood and plasma
[5] = Apparent permeability across apical to basolateral side in human Caco2 cells measured over 120 mins by LC-MS analysis; type: ADME, cell-based; details: Caco-2
[6] = Efflux ratio of apparent permeability in human Caco2 cells measured over 120 mins by LC-MS analysis; type: ADME, cell-based; details: Caco-2
[7] = Drug metabolism in human liver microsomes assessed as oxygenated metabolite M+16(2) formation by LC-MS/MS(CID) analysis; type: ADME, Microsome
[8] = Drug metabolism in rat liver microsomes assessed as N-methyl-2-(3'-propoxy-5,5'-bi(1,2,4-triazin)-3-yloxy)ethanamine formation by LC-MS/MS(CID) analysis; type: ADME, Microsome
[9] = Drug metabolism in rat liver microsomes assessed as 3'-propoxy-5,5'-bi(1,2,4-triazin)-3-ol formation by LC-MS/MS(CID) analysis; type: ADME, Microsome
[10] = test system: Plasmodium falciparum; test: Bactericidal activity against Plasmodium falciparum 3D7A at 10 times IC50; type: functional, organism-based
[11] = test system: Plasmodium; test: Antimalarial activity against Plasmodium assessed as transmission blocking potential by measuring reduction in female gamete formation by dual gamete formation assay; type: functional, organism-based
[12] = test system: HEK293; test: Cytotoxicity against HEK293 cells incubated for 24 hrs by MTT assay; type: cell-based; details: Homo sapiens, HEK293, 24 h
[13] = Cmax in Swiss mouse plasma at 2.8 mg/kg, po measured up to 24 hrs by LC-MS analysis; type: ADME, organism-based; parameters: route oral, dose 2.8 mg/kg, time <=24
[14] = Tmax in Swiss mouse at 2.8 mg/kg, po measured up to 24 hrs by LC-MS analysis; type: ADME, organism-based; details: in vivo
[15] = Clearance in Swiss mouse plasma at 2.7 mg/kg, iv measured up to 24 hrs by LC-MS analysis; type: ADME, organism-based
[16] = Oral bioavailability in Swiss mouse at 27 mg/kg measured up to 24 hrs; type: ADME, organism-based; details: in vivo
[17] = Cmax in Sprague-Dawley rat plasma at 10 mg/kg, po administered via gavage measured at 0.25 to 2.5 hrs by LC-MS analysis; type: ADME, organism-based; parameters: route oral, time upper 2.5 hrs, dose 10 mg/kg, time lower 0.25 hrs
[18] = AUC(0 to infinity) in Sprague-Dawley rat plasma at 3 mg/kg, iv measured up to 24 hrs by LC-MS analysis; type: ADME, organism-based; parameters: route intravenous, dose 3 mg/kg, time <=24
[19] = Clearance in Sprague-Dawley rat plasma at 3 mg/kg, iv measured up to 24 hrs by LC-MS analysis; type: ADME, organism-based
[20] = Drug metabolism in Sprague-Dawley rat urine assessed as oxygenated metabolite M+16(1) formation at 3 mg/kg, iv by high-resolution mass spectrometry; type: ADME, organism-based; details: in vivo
[21] = Drug metabolism in Sprague-Dawley rat urine assessed as oxygenated metabolite M+16(1) formation at 10 mg/kg, po by high-resolution mass spectrometry; type: ADME, organism-based; details: in vivo
[22] = Drug metabolism in Sprague-Dawley rat urine assessed as N-methyl-2-(3'-propoxy-5,5'-bi(1,2,4-triazin)-3-yloxy)ethanamine formation at 3 mg/kg, iv by high-resolution mass spectrometry; type: ADME, organism-based; details: in vivo
[23] = Drug metabolism in Sprague-Dawley rat urine assessed as M-32 metabolite formation at 10 mg/kg, po by high-resolution mass spectrometry; type: ADME, organism-based; details: in vivo
[24] = Drug metabolism in Sprague-Dawley rat feces assessed as N-methyl-2-(3'-propoxy-5,5'-bi(1,2,4-triazin)-3-yloxy)ethanamine formation at 10 mg/kg, po by high-resolution mass spectrometry; type: ADME, organism-based; details: in vivo
[25] = Drug metabolism in Sprague-Dawley rat plasma assessed as M-69 metabolite formation at 10 mg/kg, po by high-resolution mass spectrometry; type: ADME, organism-based; details: in vivo
[26] = Clearance in ABT-treated Sprague-Dawley rat blood at 3 mg/kg, iv by LC-MS analysis; type: ADME, organism-based
[27] = Drug recovery in bile cannulated Sprague-Dawley rat bile at 3 mg/kg, iv measured up to 4 hrs by LC-MS analysis; type: ADME, organism-based; details: read-out: Drug recovery
[28] = Toxicity in Swiss mouse assessed as induction of poor posture at 32 mg/kg/day administered for 4 days; type: organism-based; details: in vivo, 96 h, time 4 day
[29] = test system: Plasmodium falciparum; test: Antiplasmodial activity against Plasmodium falciparum 3D70087/N9 infected in NOD-SCID 1L2Rgamma mouse assessed as reduction in parasitemia at 50 mg/kg, po administered for 4 days starting from day 3 post infection by Peter's 4-day test; type: functional, organism-based
[30] = Drug metabolism in mouse liver microsomes assessed as oxygenated metabolite M+16(1) formation by LC-MS/MS(CID) analysis; type: ADME, Microsome
[31] = Drug metabolism in rat liver microsomes assessed as oxygenated metabolite M+16(1) formation by LC-MS/MS(CID) analysis; type: ADME, Microsome
[32] = Drug metabolism in mouse liver microsomes assessed as oxygenated metabolite N-methyl-2-(3'-propoxy-5,5'-bi(1,2,4-triazin)-3-yloxy)ethanamine oxide formation by LC-MS/MS(CID) analysis; type: ADME, Microsome
[33] = Drug metabolism in rat liver microsomes assessed as oxygenated metabolite N-methyl-2-(3'-propoxy-5,5'-bi(1,2,4-triazin)-3-yloxy)ethanamine oxide formation by LC-MS/MS(CID) analysis; type: ADME, Microsome
[34] = Drug metabolism in mouse hepatocytes assessed as oxygenated metabolite M+16(1) formation by LC-MS/MS(CID) analysis; type: ADME, cell-based, Hepatocyte
[35] = Drug metabolism in rat hepatocytes assessed as oxygenated metabolite M+16(1) formation by LC-MS/MS(CID) analysis; type: ADME, cell-based, Hepatocyte
[36] = Drug metabolism in human hepatocytes assessed as oxygenated metabolite M+16(2) formation by LC-MS/MS(CID) analysis; type: ADME, cell-based, Hepatocyte
[37] = Drug metabolism in human hepatocytes assessed as oxygenated metabolite N-methyl-2-(3'-propoxy-5,5'-bi(1,2,4-triazin)-3-yloxy)ethanamine oxide formation by LC-MS/MS(CID) analysis; type: ADME, cell-based, Hepatocyte
[38] = Drug metabolism in mouse hepatocytes assessed as oxygenated metabolite N-methyl-2-(3'-propoxy-5,5'-bi(1,2,4-triazin)-3-yloxy)ethanamine oxide formation by LC-MS/MS(CID) analysis; type: ADME, cell-based, Hepatocyte
[39] = Drug metabolism in rat hepatocytes assessed as oxygenated metabolite N-methyl-2-(3'-propoxy-5,5'-bi(1,2,4-triazin)-3-yloxy)ethanamine oxide formation by LC-MS/MS(CID) analysis; type: ADME, cell-based, Hepatocyte
[40] = Drug metabolism in rat hepatocytes assessed as N-methyl-2-(3'-propoxy-5,5'-bi(1,2,4-triazin)-3-yloxy)ethanamine formation by LC-MS/MS(CID) analysis; type: ADME, cell-based, Hepatocyte
[41] = Drug metabolism in human hepatocytes assessed as 3'-propoxy-5,5'-bi(1,2,4-triazin)-3-ol formation by LC-MS/MS(CID) analysis; type: ADME, cell-based, Hepatocyte
[42] = Drug metabolism in human hepatocytes assessed as glucuronides/sulfates metabolite formation by LC-MS/MS(CID) analysis; type: ADME, cell-based, Hepatocyte
[43] = test system: Plasmodium falciparum; test: microbe, parasite or virus in culture; details: 3D7, 72 h
Description: Antimalarial activity against Plasmodium falciparum 3D7 infected in human red blood cells after 72 hrs by DAPI-staining based assay

microsomal CLint [1]: 42 µL/min/mg
half-life [2]: 3.82 h
hepatocyte CLint [3]: 10 µL/min/1e6 cells
blood plasma ratio at 10 min [4]: 1.3
Papp A→B at 2 h [5]: 40 ×10⁻⁶ cm/s
efflux ratio at 2 h [6]: 1.1
Drug metabolism [7]: Metabolite_Detected
Drug metabolism [8]: Metabolite_Detected
Drug metabolism [9]: Metabolite_Notdetected
EC50 [11]: 2900 nM
Cmax [13]: 16.8 nM
Tmax [14]: 0.5 h
clearance [15]: 406 mL/min/kg
bioavailability [16]: 12%
Cmax [17]: 89.4 nM
AUC(0-inf) [18]: 0.658 µM·h
clearance [19]: 249 mL/min/kg
Drug metabolism [20]: Metabolite_Detected
Drug metabolism [21]: Metabolite_Detected
Drug metabolism [22]: Metabolite_Detected
Drug metabolism [23]: Metabolite_Detected
Drug metabolism [24]: Metabolite_Detected
Drug metabolism [25]: Metabolite_Detected
clearance [26]: 232 mL/min/kg
dose excreted at 4 h [27]: 0.1%
Drug metabolism [30]: Metabolite_Detected
Drug metabolism [31]: Metabolite_Detected
Drug metabolism [32]: Metabolite_Detected
Drug metabolism [33]: Metabolite_Detected
Drug metabolism [34]: Metabolite_Detected
Drug metabolism [35]: Metabolite_Detected
Drug metabolism [36]: Metabolite_Detected
Drug metabolism [37]: Metabolite_Detected
Drug metabolism [38]: Metabolite_Detected
Drug metabolism [39]: Metabolite_Detected
Drug metabolism [40]: Metabolite_Detected
Drug metabolism [41]: Metabolite_Notdetected
Drug metabolism [42]: Metabolite_Notdetected
IC50 [43]: 31 nM
SMILES: CCCOc1nncc(-c2cnnc(OCCN(C)C)n2)n1
Activity [10]: Active
EC50 [12]: 36000 nM
Activity [28]: Non-Toxic
Activity [29]: Active

Reference: ChEMBL document CHEMBL4808169, “Discovery of Potent and Fast-Acting Antimalarial Bis-1,2,4-triazines” (J Med Chem, 2021)
